Results from PubChem BioAssay (NCI).
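Test compounds were applied to cells in 96-well plates for 48 hours at 5 doses. The concentration for 50% growth inhibition is given as GI50. At the TGI there is no net growth.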

Columns and labels:
Assay in all cases: DTP human tumour cell line panel, 48 h
786-0 renal = system: 786-0 renal
A498 renal = system: A498 renal
A549 NSCLC = system: A549 NSCLC
ACHN renal = system: ACHN renal
BT-549 breast = system: BT-549 breast
CAKI-1 renal = system: CAKI-1 renal
CCRF-CEM leukemia = system: CCRF-CEM leukemia
COLO 205 colon = system: COLO 205 colon
DU-145 prostate = system: DU-145 prostate
EKVX NSCLC = system: EKVX NSCLC
HCC-2998 colon = system: HCC-2998 colon
HCT-116 colon = system: HCT-116 colon
HCT-15 colon = system: HCT-15 colon
HL-60(TB) leukemia = system: HL-60(TB) leukemia
HOP-62 NSCLC = system: HOP-62 NSCLC
HOP-92 NSCLC = system: HOP-92 NSCLC
HS 578T breast = system: HS 578T breast
HT29 colon = system: HT29 colon
IGROV1 ovarian = system: IGROV1 ovarian
K-562 leukemia = system: K-562 leukemia
KM12 colon = system: KM12 colon
LOX IMVI melanoma = system: LOX IMVI melanoma
M14 melanoma = system: M14 melanoma
MALME-3M melanoma = system: MALME-3M melanoma
MCF7 breast = system: MCF7 breast
MDA-MB-231 breast = system: MDA-MB-231 breast
MDA-MB-435 = system: MDA-MB-435
MOLT-4 leukemia = system: MOLT-4 leukemia
NCI-H226 lung = system: NCI-H226 lung
NCI-H23 lung = system: NCI-H23 lung
NCI-H460 lung = system: NCI-H460 lung
NCI/ADR-RES ovarian = system: NCI/ADR-RES ovarian
OVCAR-3 ovarian = system: OVCAR-3 ovarian
OVCAR-4 ovarian = system: OVCAR-4 ovarian
PC-3 prostate = system: PC-3 prostate
RPMI-8226 leukemia = system: RPMI-8226 leukemia
SF-268 CNS = system: SF-268 CNS
SF-295 CNS = system: SF-295 CNS
SF-539 CNS = system: SF-539 CNS
SK-MEL-28 melanoma = system: SK-MEL-28 melanoma
SK-MEL-5 melanoma = system: SK-MEL-5 melanoma
SK-OV-3 ovarian = system: SK-OV-3 ovarian
SN12C renal = system: SN12C renal
SNB-19 CNS = system: SNB-19 CNS
SNB-75 CNS = system: SNB-75 CNS
SW-620 colon = system: SW-620 colon
T-47D breast = system: T-47D breast
TK-10 renal = system: TK-10 renal
U251 CNS = system: U251 CNS
UACC-62 melanoma = system: UACC-62 melanoma
NCI-H522 lung = system: NCI-H522 lung
OVCAR-5 ovarian = system: OVCAR-5 ovarian
OVCAR-8 ovarian = system: OVCAR-8 ovarian
SK-MEL-2 melanoma = system: SK-MEL-2 melanoma
SR leukemia = system: SR leukemia
UACC-257 melanoma = system: UACC-257 melanoma
UO-31 renal = system: UO-31 renal

Q: What does the source list for `CCN(CCNc1ccc(C)c2sc3cc(Cl)ccc3c(=O)c12)CC(C)O` (stereo not drawn)?
A: GI50 (786-0 renal): 1.44 µM; TGI (786-0 renal): 2.75 µM; GI50 (A498 renal): 1.49 µM; TGI (A498 renal): 2.87 µM; GI50 (A549 NSCLC): 1.85 µM; TGI (A549 NSCLC): 3.45 µM; GI50 (ACHN renal): 1.85 µM; TGI (ACHN renal): 3.48 µM; GI50 (BT-549 breast): 2.71 µM; TGI (BT-549 breast): 10.1 µM; GI50 (CAKI-1 renal): 0.643 µM; TGI (CAKI-1 renal): 2.49 µM; GI50 (CCRF-CEM leukemia): 2.02 µM; TGI (CCRF-CEM leukemia): 4.27 µM; GI50 (COLO 205 colon): 1.72 µM; TGI (COLO 205 colon): 3.24 µM; GI50 (DU-145 prostate): 3.87 µM; TGI (DU-145 prostate): 18.2 µM; GI50 (EKVX NSCLC): 2.28 µM; TGI (EKVX NSCLC): 7.3 µM; GI50 (HCC-2998 colon): 2.18 µM; TGI (HCC-2998 colon): 3.62 µM; GI50 (HCT-116 colon): 1.66 µM; TGI (HCT-116 colon): 3.02 µM; GI50 (HCT-15 colon): 2.33 µM; TGI (HCT-15 colon): 5.85 µM; GI50 (HL-60(TB) leukemia): 1.7 µM; TGI (HL-60(TB) leukemia): 3.35 µM; GI50 (HOP-62 NSCLC): 1.52 µM; TGI (HOP-62 NSCLC): 2.86 µM; GI50 (HOP-92 NSCLC): 1.61 µM; TGI (HOP-92 NSCLC): 4.28 µM; GI50 (HS 578T breast): 2.23 µM; TGI (HS 578T breast): 4.35 µM; GI50 (HT29 colon): 1.65 µM; TGI (HT29 colon): 3.17 µM; GI50 (IGROV1 ovarian): 1.25 µM; TGI (IGROV1 ovarian): 2.78 µM; GI50 (K-562 leukemia): 1.82 µM; TGI (K-562 leukemia): 3.41 µM; GI50 (KM12 colon): 1.84 µM; TGI (KM12 colon): 3.88 µM; GI50 (LOX IMVI melanoma): 1.85 µM; TGI (LOX IMVI melanoma): 3.72 µM; GI50 (M14 melanoma): 1.75 µM; TGI (M14 melanoma): 3.14 µM; GI50 (MALME-3M melanoma): 1.36 µM; TGI (MALME-3M melanoma): 2.77 µM; GI50 (MCF7 breast): 1.5 µM; TGI (MCF7 breast): 3.01 µM; GI50 (MDA-MB-231 breast): 1.99 µM; TGI (MDA-MB-231 breast): 4.17 µM; GI50 (MDA-MB-435): 1.64 µM; TGI (MDA-MB-435): 3.27 µM; GI50 (MOLT-4 leukemia): 1.62 µM; TGI (MOLT-4 leukemia): 3.49 µM; GI50 (NCI-H226 lung): 2.18 µM; TGI (NCI-H226 lung): 4.72 µM; GI50 (NCI-H23 lung): 2.53 µM; TGI (NCI-H23 lung): 4.77 µM; GI50 (NCI-H460 lung): 1.78 µM; TGI (NCI-H460 lung): 3.34 µM; GI50 (NCI/ADR-RES ovarian): 2.07 µM; TGI (NCI/ADR-RES ovarian): 4.08 µM; GI50 (OVCAR-3 ovarian): 3.62 µM; TGI (OVCAR-3 ovarian): 14.3 µM; GI50 (OVCAR-4 ovarian): 4.92 µM; TGI (OVCAR-4 ovarian): 24.9 µM; GI50 (PC-3 prostate): 1.74 µM; TGI (PC-3 prostate): 3.31 µM; GI50 (RPMI-8226 leukemia): 1.71 µM; TGI (RPMI-8226 leukemia): 3.67 µM; GI50 (SF-268 CNS): 3.29 µM; TGI (SF-268 CNS): 16 µM; GI50 (SF-295 CNS): 1.67 µM; TGI (SF-295 CNS): 3.72 µM; GI50 (SF-539 CNS): 1.59 µM; TGI (SF-539 CNS): 2.95 µM; GI50 (SK-MEL-28 melanoma): 1.91 µM; TGI (SK-MEL-28 melanoma): 3.4 µM; GI50 (SK-MEL-5 melanoma): 1.62 µM; TGI (SK-MEL-5 melanoma): 2.98 µM; GI50 (SK-OV-3 ovarian): 1.76 µM; TGI (SK-OV-3 ovarian): 3.44 µM; GI50 (SN12C renal): 2.76 µM; TGI (SN12C renal): 10.5 µM; GI50 (SNB-19 CNS): 1.65 µM; TGI (SNB-19 CNS): 3.66 µM; GI50 (SNB-75 CNS): 1.75 µM; TGI (SNB-75 CNS): 3.57 µM; GI50 (SW-620 colon): 1.8 µM; TGI (SW-620 colon): 3.51 µM; GI50 (T-47D breast): 1.76 µM; TGI (T-47D breast): 4.14 µM; GI50 (TK-10 renal): 1.51 µM; TGI (TK-10 renal): 2.91 µM; GI50 (U251 CNS): 1.94 µM; TGI (U251 CNS): 4.24 µM; GI50 (UACC-62 melanoma): 1.82 µM; TGI (UACC-62 melanoma): 3.44 µM

Q: With `O=C1C=CC(=O)c2c(NCC3CC3)ccc(NCC3CC3)c21` as the compound, how does the TGI (786-0 renal) read?
A: > 100 µM

Q: What about the TGI (A498 renal) of the same compound?
A: > 100 µM

Q: And the TGI (A549 NSCLC)?
A: > 100 µM

Q: What about the TGI (ACHN renal) of the same compound?
A: > 100 µM

Q: And the TGI (BT-549 breast)?
A: > 100 µM

Q: What about the TGI (COLO 205 colon) of the same compound?
A: 41.4 µM

Q: What about the TGI (EKVX NSCLC) of the same compound?
A: > 100 µM

Q: And the TGI (HCC-2998 colon)?
A: > 100 µM

Q: What about the TGI (HCT-116 colon) of the same compound?
A: > 100 µM

Q: What about the TGI (HCT-15 colon) of the same compound?
A: > 100 µM

Q: And the TGI (HL-60(TB) leukemia)?
A: 31.8 µM

Q: What about the TGI (HOP-62 NSCLC) of the same compound?
A: > 100 µM

Q: What about the TGI (HS 578T breast) of the same compound?
A: > 100 µM

Q: What about the TGI (HT29 colon) of the same compound?
A: 88.4 µM

Q: What about the TGI (IGROV1 ovarian) of the same compound?
A: > 100 µM

Q: What about the TGI (K-562 leukemia) of the same compound?
A: 53.9 µM

Q: What about the TGI (KM12 colon) of the same compound?
A: > 100 µM

Q: And the TGI (LOX IMVI melanoma)?
A: 43 µM

Q: What about the TGI (M14 melanoma) of the same compound?
A: 56.8 µM

Q: And the TGI (MALME-3M melanoma)?
A: 49.2 µM

Q: And the TGI (MCF7 breast)?
A: 48.6 µM

Q: And the TGI (MDA-MB-231 breast)?
A: > 100 µM

Q: What about the TGI (MDA-MB-435) of the same compound?
A: 44.8 µM

Q: What about the TGI (MOLT-4 leukemia) of the same compound?
A: 44.9 µM

Q: What about the TGI (NCI-H23 lung) of the same compound?
A: 89.4 µM

Q: What about the TGI (NCI-H460 lung) of the same compound?
A: > 100 µM

Q: And the TGI (NCI-H522 lung)?
A: 15.9 µM

Q: And the TGI (NCI/ADR-RES ovarian)?
A: > 100 µM

Q: What about the TGI (OVCAR-3 ovarian) of the same compound?
A: 63.4 µM

Q: What about the TGI (OVCAR-5 ovarian) of the same compound?
A: > 100 µM

Q: And the TGI (OVCAR-8 ovarian)?
A: > 100 µM

Q: And the TGI (PC-3 prostate)?
A: > 100 µM

Q: And the TGI (RPMI-8226 leukemia)?
A: 47.4 µM

Q: And the TGI (SF-295 CNS)?
A: 79.8 µM

Q: And the TGI (SF-539 CNS)?
A: > 100 µM

Q: And the TGI (SK-MEL-2 melanoma)?
A: > 100 µM

Q: What about the TGI (SK-MEL-28 melanoma) of the same compound?
A: 99.1 µM

Q: What about the TGI (SK-MEL-5 melanoma) of the same compound?
A: 52 µM

Q: And the TGI (SN12C renal)?
A: > 100 µM

Q: And the TGI (SNB-19 CNS)?
A: > 100 µM

Q: And the TGI (SR leukemia)?
A: > 100 µM

Q: What about the TGI (SW-620 colon) of the same compound?
A: > 100 µM

Q: And the TGI (T-47D breast)?
A: 65.6 µM

Q: What about the TGI (TK-10 renal) of the same compound?
A: > 100 µM

Q: And the TGI (U251 CNS)?
A: > 100 µM

Q: And the TGI (UACC-257 melanoma)?
A: 61.8 µM

Q: What about the TGI (UACC-62 melanoma) of the same compound?
A: 65.3 µM

Q: What about the TGI (UO-31 renal) of the same compound?
A: > 100 µM
